In ChEMBL document CHEMBL4507301 (2021):

How the values were obtained:
[1] = system: Tyrosine-protein kinase ABL1 (Homo sapiens), P00519 [H396P]; conditions: Compound concentration 1000.0 nM
[2] = system: ALK tyrosine kinase receptor (Homo sapiens), Q9UM73 [C1156Y]; conditions: Compound concentration 1000.0 nM
[3] = biological target: Bone morphogenetic protein receptor type-2 (Homo sapiens) (UniProt Q13873); conditions: Compound concentration 1000.0 nM
[4] = biological target: Cytoplasmic tyrosine-protein kinase BMX (Homo sapiens) (UniProt P51813); conditions: Compound concentration 1000.0 nM
[5] = biological target: Calcium/calmodulin-dependent protein kinase type II subunit beta (Homo sapiens) (UniProt Q13554); conditions: Compound concentration 1000.0 nM
[6] = biological target: Calcium/calmodulin-dependent protein kinase type II subunit delta (Homo sapiens) (UniProt Q13557); conditions: Compound concentration 1000.0 nM
[7] = biological target: Cyclin-dependent kinase 4 (Homo sapiens) (UniProt P11802); conditions: Compound concentration 1000.0 nM
Chain of Cyclin-dependent kinase 4 (Homo sapiens) (P11802 whole entry): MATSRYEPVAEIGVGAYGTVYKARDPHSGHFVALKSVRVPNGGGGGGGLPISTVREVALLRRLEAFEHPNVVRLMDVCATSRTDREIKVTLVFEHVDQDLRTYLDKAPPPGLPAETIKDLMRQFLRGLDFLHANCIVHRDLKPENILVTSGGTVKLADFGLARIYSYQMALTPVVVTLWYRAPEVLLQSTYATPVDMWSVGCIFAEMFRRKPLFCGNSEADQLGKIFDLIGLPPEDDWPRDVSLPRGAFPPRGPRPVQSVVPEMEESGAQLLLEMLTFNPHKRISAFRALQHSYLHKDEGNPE

[8] = biological target: Cyclin-dependent kinase-like 2 (Homo sapiens) (UniProt Q92772); conditions: Compound concentration 1000.0 nM
[9] = biological target: Serine/threonine-protein kinase Chk2 (Homo sapiens) (UniProt O96017); conditions: Compound concentration 1000.0 nM
[10] = biological target: Casein kinase II subunit alpha (Homo sapiens) (UniProt P68400); conditions: Compound concentration 1000.0 nM
Chain of Casein kinase II subunit alpha (Homo sapiens) (P68400 whole entry, looked up): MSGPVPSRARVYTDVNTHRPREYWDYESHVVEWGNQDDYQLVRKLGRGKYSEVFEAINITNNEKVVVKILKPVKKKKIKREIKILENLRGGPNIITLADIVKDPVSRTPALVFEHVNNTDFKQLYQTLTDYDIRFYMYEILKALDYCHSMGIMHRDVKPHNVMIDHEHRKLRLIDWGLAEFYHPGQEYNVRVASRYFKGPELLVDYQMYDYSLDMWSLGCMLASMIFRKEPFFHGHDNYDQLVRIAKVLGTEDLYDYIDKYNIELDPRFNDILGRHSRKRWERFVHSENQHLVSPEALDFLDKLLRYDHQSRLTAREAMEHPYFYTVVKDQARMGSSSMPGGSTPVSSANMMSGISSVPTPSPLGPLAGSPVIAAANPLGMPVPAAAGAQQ

[11] = biological target: Serine/threonine-protein kinase DCLK2 (Homo sapiens) (UniProt Q8N568); conditions: Compound concentration 1000.0 nM
[12] = biological target: Serine/threonine-protein kinase DCLK3 (Homo sapiens) (UniProt Q9C098); conditions: Compound concentration 1000.0 nM
[13] = biological target: Discoidin domain-containing receptor 2 (Homo sapiens) (UniProt Q16832); conditions: Compound concentration 1000.0 nM
[14] = biological target: Serine/threonine-protein kinase 17A (Homo sapiens) (UniProt Q9UEE5); conditions: Compound concentration 1000.0 nM
[15] = biological target: Dual specificity tyrosine-phosphorylation-regulated kinase 1A (Homo sapiens) (UniProt Q13627); conditions: Compound concentration 1000.0 nM
[16] = system: Epidermal growth factor receptor (Homo sapiens), P00533 [L858R,T790M]; conditions: Compound concentration 1000.0 nM
[17] = system: Epidermal growth factor receptor (Homo sapiens), P00533 [T790M]; conditions: Compound concentration 1000.0 nM
[18] = biological target: Receptor tyrosine-protein kinase erbB-2 (Homo sapiens) (UniProt P04626); conditions: Compound concentration 1000.0 nM
[19] = biological target: Focal adhesion kinase 1 (Homo sapiens) (UniProt Q05397); conditions: Compound concentration 1000.0 nM
Chain of Focal adhesion kinase 1 (Homo sapiens) (Q05397 2-1052 limits assumed): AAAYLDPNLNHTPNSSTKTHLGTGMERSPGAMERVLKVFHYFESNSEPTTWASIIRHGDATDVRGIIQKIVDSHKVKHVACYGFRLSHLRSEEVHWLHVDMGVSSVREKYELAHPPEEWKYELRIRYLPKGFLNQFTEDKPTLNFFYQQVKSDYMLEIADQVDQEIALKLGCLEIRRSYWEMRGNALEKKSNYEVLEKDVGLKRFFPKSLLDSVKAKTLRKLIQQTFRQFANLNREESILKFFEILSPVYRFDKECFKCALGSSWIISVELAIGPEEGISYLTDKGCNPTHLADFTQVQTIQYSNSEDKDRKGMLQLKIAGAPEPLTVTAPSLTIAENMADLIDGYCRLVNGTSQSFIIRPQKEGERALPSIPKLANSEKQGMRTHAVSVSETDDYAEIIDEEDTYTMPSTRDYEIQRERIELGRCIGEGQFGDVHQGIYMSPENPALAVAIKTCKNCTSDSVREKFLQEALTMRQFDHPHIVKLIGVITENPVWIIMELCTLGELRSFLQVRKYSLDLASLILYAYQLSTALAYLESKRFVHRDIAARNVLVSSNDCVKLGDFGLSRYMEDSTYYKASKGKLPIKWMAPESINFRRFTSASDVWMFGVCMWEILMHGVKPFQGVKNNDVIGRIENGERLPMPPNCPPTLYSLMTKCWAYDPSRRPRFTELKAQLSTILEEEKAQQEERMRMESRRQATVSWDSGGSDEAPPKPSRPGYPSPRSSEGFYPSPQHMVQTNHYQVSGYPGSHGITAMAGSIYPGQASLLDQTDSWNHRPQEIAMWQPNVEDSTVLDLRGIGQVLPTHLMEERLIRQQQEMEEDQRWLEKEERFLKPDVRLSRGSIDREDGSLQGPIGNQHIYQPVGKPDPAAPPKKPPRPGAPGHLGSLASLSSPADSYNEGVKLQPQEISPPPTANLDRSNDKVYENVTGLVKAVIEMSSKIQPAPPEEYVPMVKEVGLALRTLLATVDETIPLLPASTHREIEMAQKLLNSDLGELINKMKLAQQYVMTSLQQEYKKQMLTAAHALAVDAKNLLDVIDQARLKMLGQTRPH

[20] = biological target: Fibroblast growth factor receptor 1 (Homo sapiens) (UniProt P11362); conditions: Compound concentration 1000.0 nM
[21] = biological target: Tyrosine-protein kinase Fgr (Homo sapiens) (UniProt P09769); conditions: Compound concentration 1000.0 nM
[22] = system: Receptor-type tyrosine-protein kinase FLT3 (Homo sapiens), P36888 [N841I]; conditions: Compound concentration 1000.0 nM
[23] = biological target: Tyrosine-protein kinase FRK (Homo sapiens) (UniProt P42685); conditions: Compound concentration 1000.0 nM
[24] = system: eIF-2-alpha kinase GCN2 (Homo sapiens), Q9P2K8 [S808G]; conditions: Compound concentration 1000.0 nM
[25] = biological target: Mitogen-activated protein kinase kinase kinase kinase 1 (Homo sapiens) (UniProt Q92918); conditions: Compound concentration 1000.0 nM
[26] = biological target: Hormonally up-regulated neu tumor-associated kinase (Homo sapiens) (UniProt P57058); conditions: Compound concentration 1000.0 nM
[27] = biological target: Mitogen-activated protein kinase 9 (Homo sapiens) (UniProt P45984); conditions: Compound concentration 1000.0 nM
[28] = biological target: Mast/stem cell growth factor receptor Kit (Homo sapiens) (UniProt P10721); conditions: Compound concentration 1000.0 nM
Chain of Mast/stem cell growth factor receptor Kit (Homo sapiens) (P10721 whole entry): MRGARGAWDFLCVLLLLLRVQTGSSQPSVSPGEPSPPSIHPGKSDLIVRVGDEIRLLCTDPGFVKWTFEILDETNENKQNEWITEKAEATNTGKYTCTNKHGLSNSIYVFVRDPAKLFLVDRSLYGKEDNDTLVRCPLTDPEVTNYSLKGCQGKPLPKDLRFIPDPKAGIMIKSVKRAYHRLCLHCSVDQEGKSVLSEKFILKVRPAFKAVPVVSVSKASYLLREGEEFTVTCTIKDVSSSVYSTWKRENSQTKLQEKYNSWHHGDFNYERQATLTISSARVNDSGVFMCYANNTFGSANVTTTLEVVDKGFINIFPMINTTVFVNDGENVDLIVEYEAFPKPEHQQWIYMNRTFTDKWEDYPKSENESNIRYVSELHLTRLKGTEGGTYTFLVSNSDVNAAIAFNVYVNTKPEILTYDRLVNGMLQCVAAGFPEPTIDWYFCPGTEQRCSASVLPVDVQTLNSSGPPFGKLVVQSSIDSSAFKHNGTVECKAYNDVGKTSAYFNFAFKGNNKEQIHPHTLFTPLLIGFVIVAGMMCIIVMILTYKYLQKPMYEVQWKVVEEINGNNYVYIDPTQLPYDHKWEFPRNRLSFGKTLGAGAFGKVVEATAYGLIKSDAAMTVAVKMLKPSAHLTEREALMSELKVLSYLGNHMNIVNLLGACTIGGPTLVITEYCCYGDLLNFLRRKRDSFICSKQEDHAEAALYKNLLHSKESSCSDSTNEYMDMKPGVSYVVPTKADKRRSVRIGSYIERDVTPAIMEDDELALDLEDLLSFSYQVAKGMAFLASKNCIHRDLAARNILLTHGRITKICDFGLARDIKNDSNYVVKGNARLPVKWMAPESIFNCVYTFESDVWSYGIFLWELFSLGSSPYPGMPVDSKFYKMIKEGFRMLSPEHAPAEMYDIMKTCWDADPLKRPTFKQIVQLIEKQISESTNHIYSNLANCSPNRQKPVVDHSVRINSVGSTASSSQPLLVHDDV

[29] = biological target: Dual specificity mitogen-activated protein kinase kinase 7 (Homo sapiens) (UniProt O14733); conditions: Compound concentration 1000.0 nM
[30] = biological target: MAP kinase-interacting serine/threonine-protein kinase 1 (Homo sapiens) (UniProt Q9BUB5); conditions: Compound concentration 1000.0 nM
[31] = biological target: Mitogen-activated protein kinase 12 (Homo sapiens) (UniProt P53778); conditions: Compound concentration 1000.0 nM
[32] = biological target: Serine/threonine-protein kinase PAK 5 (Homo sapiens) (UniProt Q9P286); conditions: Compound concentration 1000.0 nM
[33] = system: Phosphatidylinositol 4,5-bisphosphate 3-kinase catalytic subunit alpha isoform (Homo sapiens), P42336 [H1047Y]; conditions: Compound concentration 1000.0 nM
[34] = biological target: Serine/threonine-protein kinase D1 (Homo sapiens) (UniProt Q15139); conditions: Compound concentration 1000.0 nM
[35] = biological target: Serine/threonine-protein kinase Sgk2 (Homo sapiens) (UniProt Q9HBY8); conditions: Compound concentration 1000.0 nM
[36] = biological target: STE20-like serine/threonine-protein kinase (Homo sapiens) (UniProt Q9H2G2); conditions: Compound concentration 1000.0 nM
[37] = biological target: SRSF protein kinase 1 (Homo sapiens) (UniProt Q96SB4); conditions: Compound concentration 1000.0 nM
[38] = biological target: BDNF/NT-3 growth factors receptor (Homo sapiens) (UniProt Q16620); conditions: Compound concentration 1000.0 nM
[39] = biological target: Non-receptor tyrosine-protein kinase TYK2 (Homo sapiens) (UniProt P29597); conditions: Compound concentration 1000.0 nM
Chain of Non-receptor tyrosine-protein kinase TYK2 (Homo sapiens) (P29597 whole entry): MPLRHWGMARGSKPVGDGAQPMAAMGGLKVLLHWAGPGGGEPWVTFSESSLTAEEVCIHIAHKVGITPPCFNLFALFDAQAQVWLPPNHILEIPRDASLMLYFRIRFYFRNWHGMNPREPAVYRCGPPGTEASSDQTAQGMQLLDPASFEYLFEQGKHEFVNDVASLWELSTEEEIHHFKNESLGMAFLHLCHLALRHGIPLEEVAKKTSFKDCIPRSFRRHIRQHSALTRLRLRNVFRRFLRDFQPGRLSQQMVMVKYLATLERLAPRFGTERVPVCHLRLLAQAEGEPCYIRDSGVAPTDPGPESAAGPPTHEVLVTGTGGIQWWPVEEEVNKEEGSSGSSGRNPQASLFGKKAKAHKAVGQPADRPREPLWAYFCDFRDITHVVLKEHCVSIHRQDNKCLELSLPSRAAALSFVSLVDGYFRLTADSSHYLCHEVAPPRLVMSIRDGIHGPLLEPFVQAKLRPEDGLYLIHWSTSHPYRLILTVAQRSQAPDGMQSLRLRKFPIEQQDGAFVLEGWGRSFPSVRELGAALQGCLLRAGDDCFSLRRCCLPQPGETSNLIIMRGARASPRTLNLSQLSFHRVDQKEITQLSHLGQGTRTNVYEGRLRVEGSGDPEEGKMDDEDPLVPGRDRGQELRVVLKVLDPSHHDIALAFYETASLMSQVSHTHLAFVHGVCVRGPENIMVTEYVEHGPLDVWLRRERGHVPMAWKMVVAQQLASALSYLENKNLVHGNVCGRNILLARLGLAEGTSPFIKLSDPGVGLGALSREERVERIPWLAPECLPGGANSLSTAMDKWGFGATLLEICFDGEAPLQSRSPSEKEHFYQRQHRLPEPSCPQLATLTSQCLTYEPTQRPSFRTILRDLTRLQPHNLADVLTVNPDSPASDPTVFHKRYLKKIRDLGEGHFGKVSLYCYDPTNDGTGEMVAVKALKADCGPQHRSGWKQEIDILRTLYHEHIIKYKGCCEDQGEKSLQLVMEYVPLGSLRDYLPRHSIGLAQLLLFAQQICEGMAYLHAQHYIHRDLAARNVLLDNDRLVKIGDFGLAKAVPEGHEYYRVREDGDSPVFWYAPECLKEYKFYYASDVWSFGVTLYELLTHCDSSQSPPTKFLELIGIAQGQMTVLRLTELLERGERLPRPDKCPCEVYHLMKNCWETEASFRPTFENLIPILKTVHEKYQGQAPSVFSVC

[40] = biological target: Serine/threonine-protein kinase WNK4 (Homo sapiens) (UniProt Q96J92); conditions: Compound concentration 1000.0 nM
[41] = biological target: 5-hydroxytryptamine receptor 2A (Homo sapiens) (UniProt P28223); conditions: Compound concentration 10.0 uM
Chain of 5-hydroxytryptamine receptor 2A (Homo sapiens) (P28223 whole entry): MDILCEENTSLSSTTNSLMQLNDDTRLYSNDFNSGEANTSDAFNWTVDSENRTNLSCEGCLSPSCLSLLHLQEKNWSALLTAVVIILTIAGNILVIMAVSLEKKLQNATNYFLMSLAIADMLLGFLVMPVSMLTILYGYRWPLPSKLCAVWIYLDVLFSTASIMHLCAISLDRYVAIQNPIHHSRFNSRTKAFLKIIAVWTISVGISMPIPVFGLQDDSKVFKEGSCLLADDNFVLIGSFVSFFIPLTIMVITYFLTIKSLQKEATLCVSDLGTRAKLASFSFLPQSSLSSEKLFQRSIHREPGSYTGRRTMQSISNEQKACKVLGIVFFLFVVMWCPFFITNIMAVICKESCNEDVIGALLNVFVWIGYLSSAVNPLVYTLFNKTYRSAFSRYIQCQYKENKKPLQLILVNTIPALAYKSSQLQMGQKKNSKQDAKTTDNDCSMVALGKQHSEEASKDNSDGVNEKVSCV

[42] = biological target: 5-hydroxytryptamine receptor 2B (Homo sapiens) (UniProt P41595); conditions: Compound concentration 10.0 uM
Chain of 5-hydroxytryptamine receptor 2B (Homo sapiens) (P41595 whole entry): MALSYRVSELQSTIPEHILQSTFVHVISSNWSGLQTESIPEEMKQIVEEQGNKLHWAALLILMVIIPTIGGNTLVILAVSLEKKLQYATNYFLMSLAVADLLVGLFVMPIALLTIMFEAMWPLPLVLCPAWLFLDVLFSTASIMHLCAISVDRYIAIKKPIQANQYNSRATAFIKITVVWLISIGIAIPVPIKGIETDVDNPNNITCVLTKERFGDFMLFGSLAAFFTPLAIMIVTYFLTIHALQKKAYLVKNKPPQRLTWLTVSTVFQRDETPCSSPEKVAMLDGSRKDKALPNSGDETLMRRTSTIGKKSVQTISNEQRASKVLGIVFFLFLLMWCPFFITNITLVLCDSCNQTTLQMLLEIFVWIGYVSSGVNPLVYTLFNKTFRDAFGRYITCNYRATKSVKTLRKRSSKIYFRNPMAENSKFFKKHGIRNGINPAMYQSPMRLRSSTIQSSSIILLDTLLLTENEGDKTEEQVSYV

[43] = biological target: D(1A) dopamine receptor (Homo sapiens) (UniProt P21728); conditions: Compound concentration 10.0 uM
[44] = biological target: Histamine H1 receptor (Homo sapiens) (UniProt P35367); conditions: Compound concentration 10.0 uM
[45] = biological target: Muscarinic acetylcholine receptor M3 (Homo sapiens) (UniProt P20309); conditions: Compound concentration 10.0 uM

Q: For C[C@H](c1cccc(C#N)c1)n1cc(Cl)cc(C(N)=O)c1=N [(R)-9s], which residual activity [1] is on record?
A: 79%

Q: And the residual activity [2]?
A: 89%

Q: And the residual activity [3]?
A: 97%

Q: What about the residual activity [4] of the same molecule?
A: 77%

Q: What about the residual activity [5] of the same molecule?
A: 100%

Q: What about the residual activity [6] of the same molecule?
A: 100%

Q: What about the residual activity [7] of the same molecule?
A: 97%

Q: And the residual activity [8]?
A: 100%

Q: And the residual activity [9]?
A: 100%

Q: And the residual activity [10]?
A: 67%

Q: What about the residual activity [11] of the same molecule?
A: 88%

Q: What about the residual activity [12] of the same molecule?
A: 99%

Q: What about the residual activity [13] of the same molecule?
A: 100%

Q: What about the residual activity [14] of the same molecule?
A: 85%

Q: What about the residual activity [15] of the same molecule?
A: 65%

Q: And the residual activity [16]?
A: 89%

Q: What about the residual activity [17] of the same molecule?
A: 80%

Q: What about the residual activity [18] of the same molecule?
A: 100%

Q: And the residual activity [19]?
A: 100%

Q: And the residual activity [20]?
A: 95%

Q: And the residual activity [21]?
A: 80%

Q: What about the residual activity [22] of the same molecule?
A: 97%

Q: What about the residual activity [23] of the same molecule?
A: 98%

Q: What about the residual activity [24] of the same molecule?
A: 45%

Q: What about the residual activity [25] of the same molecule?
A: 100%

Q: What about the residual activity [26] of the same molecule?
A: 89%

Q: What about the residual activity [27] of the same molecule?
A: 96%

Q: And the residual activity [28]?
A: 98%

Q: What about the residual activity [29] of the same molecule?
A: 72%

Q: What about the residual activity [30] of the same molecule?
A: 63%

Q: And the residual activity [31]?
A: 100%

Q: And the residual activity [32]?
A: 100%

Q: What about the residual activity [33] of the same molecule?
A: 95%

Q: What about the residual activity [34] of the same molecule?
A: 100%

Q: What about the residual activity [35] of the same molecule?
A: 100%

Q: What about the residual activity [36] of the same molecule?
A: 100%

Q: And the residual activity [37]?
A: 96%

Q: What about the residual activity [38] of the same molecule?
A: 100%

Q: And the residual activity [39]?
A: 75%

Q: What about the residual activity [40] of the same molecule?
A: 97%

Q: What about the inhibition [41] of the same molecule?
A: 12.3%

Q: And the inhibition [42]?
A: 9.88%

Q: What about the inhibition [43] of the same molecule?
A: 1.16%

Q: What about the inhibition [44] of the same molecule?
A: -6.96%

Q: And the inhibition [45]?
A: -8.15%

Q: What does the source list for C[C@@H](c1cccc(C#N)c1)n1cc(Cl)cc(C(N)=O)c1=N [(S)-9s]?
A: residual activity [1]: 76%; residual activity [2]: 98%; residual activity [3]: 100%; residual activity [4]: 95%; residual activity [5]: 100%; residual activity [6]: 100%; residual activity [7]: 96%; residual activity [8]: 100%; residual activity [9]: 100%; residual activity [10]: 72%; residual activity [11]: 90%; residual activity [12]: 86%; residual activity [13]: 88%; residual activity [14]: 89%; residual activity [15]: 75%; residual activity [16]: 86%; residual activity [17]: 93%; residual activity [18]: 96%; residual activity [19]: 100%; residual activity [20]: 91%; residual activity [21]: 87%; residual activity [22]: 86%; residual activity [23]: 100%; residual activity [24]: 50%; residual activity [25]: 96%; residual activity [26]: 100%; residual activity [27]: 82%; residual activity [28]: 78%; residual activity [29]: 99%; residual activity [30]: 86%; residual activity [31]: 73%; residual activity [32]: 97%; residual activity [33]: 100%; residual activity [34]: 90%; residual activity [35]: 91%; residual activity [36]: 88%; residual activity [37]: 100%; residual activity [38]: 100%; residual activity [39]: 94%; residual activity [40]: 98%; inhibition [41]: 5.24%; inhibition [42]: 3.93%; inhibition [43]: -6.15%; inhibition [44]: -9.05%; inhibition [45]: -6.17%
